Measurements published in publication PMC12777510 (Chempluschem, 2025).
≈ marks a conversion by molar mass, not a printed value. *1 amine or outer side, *2 acyl side, *3 side chain or, on linkers, in order; H or OH if unused. Where a SMILES comes first, the peptide text is derived from it. [ ]: non-standard residue; d: D form. X1 = O=C(C[C@@H](CCCCCCCCCCC(F)(F)F)N[*:1])[*:2]

Settings: 19F NMR samples in D2O containing Saboraud Dextrose Broth (30 g/L), 5% d6-DMSO added to avoid precipitation

NC(=O)CC[C@@H]1NC(=O)[C@@H](CC(N)=O)NC(=O)[C@@H](Cc2ccc(O)cc2)NC(=O)[C@H](CC(N)=O)NC(=O)C[C@@H](CCCCCCCCCCC(F)(F)F)NC(=O)[C@H](CO)NC(=O)[C@@H](CC(N)=O)NC(=O)[C@@H]2CCCN2C1=O [Compound 9, ω‐CF3 iturin A2] (cyclo(N[dY][dN]QP[dN]S[X1]))
aqueous solubility: 100 µM (≈ 110 µg/mL)
